Laboratory results: ChEMBL document CHEMBL1201862, “PubChem BioAssay data set” (2004)
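48-hour exposure; five concentrations; linearly interpolated endpoints. GI50 = concentration required for 50% inhibition of growth.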 Calls of active or inactive are those of the source. Rule as the data show it: active = GI50 up to about 1.1 µM and inactive = higher.

Assays:
Assay in all cases: NCI tumour cell line growth inhibition, 48 h
[1] = system: A498
[2] = system: A549
[3] = system: BT-549
[4] = system: CAKI-1
[5] = system: CCRF-CEM
[6] = system: COLO 205
[7] = system: EKVX
[8] = system: HCC 2998
[9] = system: HCT-15
[10] = system: HL-60
[11] = system: HOP-62
[12] = system: HOP-92
[13] = system: HT-29
[14] = system: Hs-578T
[15] = system: IGROV-1
[16] = system: K562
[17] = system: KM12
[18] = system: M14
[19] = system: MCF7
[20] = system: MDA-MB-231
[21] = system: MDA-MB-435
[22] = system: MOLT-4
[23] = system: Malme-3M
[24] = system: NCI-H23
[25] = system: NCI-H460
[26] = system: NCI-H522
[27] = system: NCI/ADR-RES
[28] = system: OVCAR-3
[29] = system: OVCAR-4
[30] = system: OVCAR-5
[31] = system: OVCAR-8
[32] = system: PC-3
[33] = system: RPMI-8226
[34] = system: RXF 393
[35] = system: SF-268
[36] = system: SF-295
[37] = system: SF-539
[38] = system: SK-MEL-28
[39] = system: SK-MEL-2
[40] = system: SK-MEL-5
[41] = system: SK-OV-3
[42] = system: SNB-19
[43] = system: SR
[44] = system: SW-620
[45] = system: TK-10
[46] = system: U-251
[47] = system: UACC-257
[48] = system: UACC-62
[49] = system: UO-31
[50] = system: 786-0
[51] = system: ACHN
[52] = system: DU-145
[53] = system: HCT-116
[54] = system: LOX IMVI
[55] = system: MDA-N
[56] = system: NCI-H226
[57] = system: SN12C
[58] = system: SNB-75

Measured: GI50

CC(=O)O[C@H]1CC[C@H]2[C@@H]3CCC(C(C)=O)[C@H](C(=O)O)[C@H]3CC[C@]12C (stereo partly specified)
inactive: [1] > 100 µM | [2] > 100 µM | [3] > 100 µM | [4] > 100 µM | [5] > 100 µM | [6] > 100 µM | [7] > 100 µM | [8] > 100 µM | [10] > 100 µM | [11] > 100 µM | [12] > 100 µM | [13] > 100 µM | [14] > 100 µM | [15] > 100 µM | [16] > 100 µM | [17] > 100 µM | [18] > 100 µM | [19] > 100 µM | [20] > 100 µM | [21] > 100 µM | [22] > 100 µM | [23] > 100 µM | [24] > 100 µM | [25] > 100 µM | [26] > 100 µM | [27] > 100 µM | [28] > 100 µM | [29] > 100 µM | [30] > 100 µM | [31] > 100 µM | [32] > 100 µM | [33] > 100 µM | [34] > 100 µM | [35] > 100 µM | [36] > 100 µM | [37] > 100 µM | [38] > 100 µM | [39] > 100 µM | [40] > 100 µM | [41] > 100 µM | [42] > 100 µM | [43] > 100 µM | [44] > 100 µM | [45] > 100 µM | [46] > 100 µM | [47] > 100 µM | [48] > 100 µM | [49] > 100 µM
> 100 µM: [9]

NC1CC2NC3CCCCC3NC2CC1N (stereo unspecified)
inactive: [50] 30 µM | [1] 26.8 µM | [2] 58.3 µM | [51] 24.9 µM | [3] > 100 µM | [4] 35 µM | [5] 22.5 µM | [6] 42.5 µM | [52] 50.2 µM | [7] 25.4 µM | [8] 62.5 µM | [53] 24.1 µM | [10] 26.7 µM | [13] 27.4 µM | [14] 27.9 µM | [15] 55.2 µM | [16] 31.8 µM | [17] 33.7 µM | [54] 31.6 µM | [18] 67.9 µM | [20] 61.7 µM | [21] 36.1 µM | [55] 43.8 µM | [22] 24.9 µM | [23] 46.6 µM | [56] 48.9 µM | [24] 32.4 µM | [25] 29 µM | [26] 12.6 µM | [27] 30.1 µM | [28] 40.8 µM | [30] 42.7 µM | [31] 27.4 µM | [32] 50.9 µM | [33] 37.5 µM | [34] 23.7 µM | [35] 50.8 µM | [36] 31.8 µM | [37] 80.4 µM | [38] 74.5 µM | [39] 50.1 µM | [40] 27.7 µM | [41] 28.4 µM | [57] 35 µM | [42] 36.2 µM | [58] 25.1 µM | [43] 29.2 µM | [44] 24.1 µM | [45] 41.8 µM | [46] 28 µM | [47] 37.9 µM | [48] 33.6 µM | [49] 27 µM
active: [19] 0.776 µM
21.7 µM: [9]

O=C1C=CC=C/C1=C1\N=C(c2ccccc2OCC(=O)c2ccccc2)SS1
> 100 µM: [9]
inactive: [50] > 100 µM | [1] > 100 µM | [2] > 100 µM | [51] > 100 µM | [3] 46.1 µM | [4] > 100 µM | [5] > 100 µM | [7] > 100 µM | [8] > 100 µM | [53] > 100 µM | [10] > 100 µM | [11] 39.4 µM | [12] > 100 µM | [13] > 100 µM | [14] 26.9 µM | [15] > 100 µM | [16] > 100 µM | [17] > 100 µM | [54] > 100 µM | [18] > 100 µM | [19] > 100 µM | [20] > 100 µM | [21] > 100 µM | [55] > 100 µM | [22] 22.6 µM | [23] > 100 µM | [56] > 100 µM | [24] > 100 µM | [25] > 100 µM | [27] > 100 µM | [28] > 100 µM | [29] > 100 µM | [30] > 100 µM | [31] 73.5 µM | [33] > 100 µM | [34] > 100 µM | [35] 58.1 µM | [36] 74.5 µM | [37] 86.7 µM | [38] > 100 µM | [39] > 100 µM | [41] > 100 µM | [57] > 100 µM | [42] > 100 µM | [58] 19.6 µM | [44] > 100 µM | [45] > 100 µM | [46] 44.8 µM | [47] > 100 µM | [48] > 100 µM | [49] > 100 µM

COc1cccc2c(=O)c3c(O)c4cc(N(C)C)ccc4c(OC(C)=O)c3oc12
inactive: [50] 11.7 µM | [1] 21 µM | [2] 26.1 µM | [51] 15.2 µM | [3] 10.2 µM | [4] 5.24 µM | [5] 5.33 µM | [6] 4.1 µM | [52] 17.8 µM | [7] 12.5 µM | [8] 15 µM | [53] 13.9 µM | [10] 3.96 µM | [11] 15 µM | [12] 17.4 µM | [13] 14.1 µM | [14] 14.3 µM | [16] 15.6 µM | [17] 13 µM | [54] 12 µM | [18] 9.98 µM | [19] 14.5 µM | [20] 11.4 µM | [21] 12.6 µM | [55] 13.7 µM | [22] 3.1 µM | [23] 2.56 µM | [56] 23.2 µM | [24] 17.2 µM | [25] 18.2 µM | [27] 21.7 µM | [28] 4 µM | [29] 13.5 µM | [30] 38.9 µM | [31] 15.7 µM | [32] 17.6 µM | [33] 13.2 µM | [34] 4.72 µM | [35] 17 µM | [36] 25.1 µM | [37] 17.2 µM | [38] 10.5 µM | [39] 16.3 µM | [40] 12.6 µM | [41] 32.4 µM | [57] 12.9 µM | [42] 33.2 µM | [58] 15.5 µM | [44] 7.41 µM | [45] 15.3 µM | [46] 14 µM | [47] 12.9 µM | [48] 12.9 µM | [49] 17.7 µM
12.7 µM: [9]

CCN1C/C(=C\c2ccc(Cl)cc2)c2nc(N)c(C#N)c(-c3ccc(Cl)cc3)c2C1
> 100 µM: [9]
inactive: [50] > 100 µM | [1] > 100 µM | [2] > 100 µM | [51] > 100 µM | [3] > 100 µM | [4] > 100 µM | [5] > 100 µM | [6] > 100 µM | [52] > 100 µM | [7] > 100 µM | [8] > 100 µM | [53] > 100 µM | [10] > 100 µM | [11] > 100 µM | [13] > 100 µM | [14] > 100 µM | [15] > 100 µM | [16] > 100 µM | [17] > 100 µM | [54] > 100 µM | [18] > 100 µM | [19] > 100 µM | [20] > 100 µM | [21] > 100 µM | [55] > 100 µM | [22] 67.9 µM | [23] > 100 µM | [56] > 100 µM | [24] > 100 µM | [25] > 100 µM | [26] > 100 µM | [27] > 100 µM | [28] > 100 µM | [29] > 100 µM | [30] > 100 µM | [31] > 100 µM | [32] > 100 µM | [33] > 100 µM | [34] > 100 µM | [35] > 100 µM | [36] > 100 µM | [38] > 100 µM | [39] > 100 µM | [40] > 100 µM | [41] > 100 µM | [42] > 100 µM | [58] 60.3 µM | [43] 27.1 µM | [44] > 100 µM | [45] > 100 µM | [46] > 100 µM | [47] > 100 µM | [48] > 100 µM | [49] > 100 µM
